Source: patent US5753617A, “Peptide inhibitors of cellular adhesion” (Centocor, Inc., priority 1995, dated 1998)
Read-outs that look alike come from different tables or passages of the source. Where a SMILES comes first, the peptide text is derived from it. Bridges are numbered along the chain shown (N, C = ends). [ ]: non-standard residue; d: D form. dTic = O=C(O)[C@H]1Cc2ccccc2CN1; dPen = CC(C)(S)[C@@H](N)C(=O)O

How the values were obtained:
P-selectin = molecular target: T1, P-selectin (Homo sapiens, UniProt P16109); assay: Inhibition of human neutrophil adhesion to purified P-selectin immobilized on plastic wells; format: cell-based; conditions: for IC50: inhibiting the binding of human neutrophils to P-selectin
T1 construct: P-selectin is isolated from human platelet lysates; from tissue; host or cells: human platelets (outdated platelet packs from a blood bank)
T1 sequence (P16109 42-830): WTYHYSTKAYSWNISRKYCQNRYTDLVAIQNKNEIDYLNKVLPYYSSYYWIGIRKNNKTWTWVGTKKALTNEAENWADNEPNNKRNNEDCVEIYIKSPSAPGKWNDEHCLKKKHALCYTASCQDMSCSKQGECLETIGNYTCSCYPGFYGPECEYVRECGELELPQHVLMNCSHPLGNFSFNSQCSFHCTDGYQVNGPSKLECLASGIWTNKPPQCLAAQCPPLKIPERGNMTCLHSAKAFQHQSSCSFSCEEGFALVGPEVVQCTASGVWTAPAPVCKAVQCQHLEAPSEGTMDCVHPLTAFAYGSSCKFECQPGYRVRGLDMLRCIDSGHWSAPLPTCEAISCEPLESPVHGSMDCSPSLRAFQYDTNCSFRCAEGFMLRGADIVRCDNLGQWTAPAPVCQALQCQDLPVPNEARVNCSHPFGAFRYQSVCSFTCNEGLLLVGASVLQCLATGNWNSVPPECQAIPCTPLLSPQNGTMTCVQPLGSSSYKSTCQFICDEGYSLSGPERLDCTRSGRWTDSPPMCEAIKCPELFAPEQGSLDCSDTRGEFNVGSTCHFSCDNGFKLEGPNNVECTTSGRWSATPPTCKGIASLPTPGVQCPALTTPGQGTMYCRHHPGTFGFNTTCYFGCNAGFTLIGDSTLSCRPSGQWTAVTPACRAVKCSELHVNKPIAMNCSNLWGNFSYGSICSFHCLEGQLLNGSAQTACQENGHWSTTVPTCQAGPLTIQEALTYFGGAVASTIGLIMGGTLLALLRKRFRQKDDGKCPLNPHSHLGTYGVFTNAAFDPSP
Method in brief: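 Isolated human neutrophils (2×10^5 per well) in HBSS with Ca2+/Mg2+ and HSA added to wells coated overnight at 4° C with platelet-derived P-selectin (5 micrograms/mL), HSA-blocked; 20 min at 22° C. Nonadherent cells removed by inverted centrifugation at 150 g; adherent cells quantified by myeloperoxidase activity.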

SMILES	IC50 (P-selectin) [µM]	other results
CC(C)C[C@@H]1NC(=O)CNC(=O)[C@H](NC(=O)[C@@H](CCCCN)NC(=O)[C@H](N)CCCNC(=N)N)CSSC[C@H](C(=O)N[C@H](Cc2c[nH]c3ccccc23)C(=O)N[C@@H](C(=O)N[C@H](Cc2c[nH]c3ccccc23)C(=O)N[C@@H](C(N)=O)C(C)C)[C@H](C)O)NC1=O [(69)] (H-[dR][dK][dC]GL[dC][dW][dT][dW][dV]-NH2; disulfide 3-6)	146	ring closure, yield of all isomers (from CC(C)C[C@H](NC(=O)CNC(=O)[C@@H](CS)NC(=O)[C@@H](CCCCN)NC(=O)[C@H](N)CCCNC(=N)N)C(=O)N[C@H](CS)C(=O)N[C@H](Cc1c[nH]c2ccccc12)C(=O)N[C@@H](C(=O)N[C@H](Cc1c[nH]c2ccccc12)C(=O)N[C@@H](C(N)=O)C(C)C)[C@H](C)O, disulfide bond, DMSO, water, 0.252 mM, 25.0 °C, 96.0 h): 8.3%
CC(C)[C@@H](NC(=O)[C@@H](Cc1c[nH]c2ccccc12)NC(=O)[C@H](NC(=O)[C@@H](Cc1c[nH]c2ccccc12)NC(=O)[C@H]1CSSC[C@@H](NC(=O)[C@@H](CCCCN)NC(=O)[C@H](N)CCCNC(=N)N)C(=O)NCCC(=O)N[C@@H](Cc2ccccc2)C(=O)N1)[C@H](C)O)C(N)=O	–	ring closure, yield of all isomers (from CC(C)[C@@H](NC(=O)[C@@H](Cc1c[nH]c2ccccc12)NC(=O)[C@H](NC(=O)[C@@H](Cc1c[nH]c2ccccc12)NC(=O)[C@@H](CS)NC(=O)[C@H](Cc1ccccc1)NC(=O)CCNC(=O)[C@@H](CS)NC(=O)[C@@H](CCCCN)NC(=O)[C@H](N)CCCNC(=N)N)[C@H](C)O)C(N)=O, disulfide bond, air, Cu wire, ammonium acetate pH 8.5, water, 0.842 mM, 22.0 h): 8.1%
CC(C)[C@H](NC(=O)[C@@H](Cc1c[nH]c2ccccc12)NC(=O)[C@H](NC(=O)[C@@H](Cc1c[nH]c2ccccc12)NC(=O)[C@H]1CSSC[C@@H](NC(=O)[C@@H](CCCCN)NC(=O)[C@H](N)CCCNC(=N)N)C(=O)NCC(=O)N[C@@H](Cc2ccccc2)C(=O)N1)[C@H](C)O)C(N)=O	–	ring closure, yield of all isomers (from CC(C)[C@H](NC(=O)[C@@H](Cc1c[nH]c2ccccc12)NC(=O)[C@H](NC(=O)[C@@H](Cc1c[nH]c2ccccc12)NC(=O)[C@@H](CS)NC(=O)[C@H](Cc1ccccc1)NC(=O)CNC(=O)[C@@H](CS)NC(=O)[C@@H](CCCCN)NC(=O)[C@H](N)CCCNC(=N)N)[C@H](C)O)C(N)=O, disulfide bond, DMSO, water, 0.161 mM): 9.4%
CC(C)[C@@H](NC(=O)[C@@H](Cc1c[nH]c2ccccc12)NC(=O)[C@H](NC(=O)[C@@H](Cc1c[nH]c2ccccc12)NC(=O)[C@H]1CSSC[C@@H](NC(=O)[C@@H](CCCCN)NC(=O)[C@H](N)CCCNC(=N)N)C(=O)NCC(=O)N[C@@H](Cc2ccccc2)C(=O)N1)[C@H](C)O)C(N)=O	–	ring closure, yield of all isomers (from CC(C)[C@@H](NC(=O)[C@@H](Cc1c[nH]c2ccccc12)NC(=O)[C@H](NC(=O)[C@@H](Cc1c[nH]c2ccccc12)NC(=O)[C@@H](CS)NC(=O)[C@H](Cc1ccccc1)NC(=O)CNC(=O)[C@@H](CS)NC(=O)[C@@H](CCCCN)NC(=O)[C@H](N)CCCNC(=N)N)[C@H](C)O)C(N)=O, disulfide bond, DMSO, water, 0.253 mM, 16.0 h): 10.8%
CC[C@H](C)[C@H](NC(=O)[C@H](CCCCN)NC(=O)[C@@H](N)CCCNC(=N)N)C(=O)NCC(=O)NCC(=O)N[C@H]1CCC(=O)NCCCC[C@@H](C(N)=O)NC(=O)[C@H](Cc2c[nH]c3ccccc23)NC(=O)[C@H]([C@@H](C)O)NC(=O)[C@H](Cc2c[nH]c3ccccc23)NC1=O [SEQ ID NO:2, Arg-Lys-Ile-Gly-Gly-cyclo(Glu-Trp-Thr-Trp-Lys)-NH2] (H-RKIGGEWTWK-NH2; lactam 6-10)	–	biological activity / inhibiting neutrophil adhesion to P-selectin (result in words) (P-selectin; human neutrophils, purified human P-selectin): inactive
CC(C)[C@@H](NC(=O)[C@@H](Cc1c[nH]c2ccccc12)NC(=O)[C@H](NC(=O)[C@@H](Cc1c[nH]c2ccccc12)NC(=O)[C@H]1CSSC[C@@H](N)C(=O)NCC(=O)NCC(=O)N1)[C@H](C)O)C(N)=O [(28)] (H-[dC]GG[dC][dW][dT][dW][dV]-NH2; disulfide 1-4)	311	–
CC(C)[C@@H](NC(=O)[C@@H](Cc1c[nH]c2ccccc12)NC(=O)[C@H](NC(=O)[C@@H](Cc1c[nH]c2ccccc12)NC(=O)[C@H]1CSSC[C@@H](NC(=O)[C@@H](CCCCN)NC(=O)[C@H](N)CCCNC(=N)N)C(=O)N2CCC[C@H]2C(=O)NCC(=O)N1)[C@H](C)O)C(N)=O [(83)] (H-[dR][dK][dC]PG[dC][dW][dT][dW][dV]-NH2; disulfide 3-6)	983	–
CC(C)[C@H](NC(=O)[C@H](Cc1c[nH]c2ccccc12)NC(=O)[C@@H](NC(=O)[C@H](Cc1c[nH]c2ccccc12)NC(=O)[C@@H]1CC(=O)NC[C@H](NC(=O)[C@H](CCCCN)NC(=O)[C@@H](N)CCCNC(=N)N)C(=O)NCC(=O)NCC(=O)N1)[C@@H](C)O)C(N)=O	–	ring closure, yield of all isomers (amide bond, BOP/HOBt/DIEA, NMP, 80.0 h, 9 steps): 8.5%

Now from value to compound, other results behind:

IC50 (P-selectin) [µM]	SMILES	other results
19.5	CC(=O)NCCCC[C@@H](NC(=O)[C@H]1CSC[C@@H](NC(=O)[C@@H](CCCCN)NC(=O)[C@H](N)CCCNC(=N)N)C(=O)NCC(=O)N[C@@H](Cc2ccccc2)C(=O)N1)C(=O)N[C@@H](C(=O)N[C@H](Cc1c[nH]c2ccccc12)C(=O)N[C@@H](C(N)=O)C(C)C)[C@H](C)O [(50)]	–
36	CC(C)[C@H](NC(=O)[C@H](Cc1c[nH]c2ccccc12)NC(=O)[C@@H](NC(=O)[C@H](Cc1c[nH]c2ccccc12)NC(=O)[C@@H]1CSSC(C)(C)[C@@H](NC(=O)[C@H](CCCCN)NC(=O)[C@@H](N)CCCNC(=N)N)C(=O)NCC(=O)NCC(=O)N1)[C@@H](C)O)C(N)=O [(23)] (H-RK[dPen]GGCWTWV-NH2; disulfide 3-6)	–
11.1	CC[C@@H](C)[C@H]1NC(=O)[C@H]([C@@H](C)CC)NC(=O)[C@H](NC(=O)[C@@H](CCCCN)NC(=O)[C@H](N)CCCNC(=N)N)CSSC[C@H](C(=O)N[C@H](Cc2c[nH]c3ccccc23)C(=O)N[C@@H](C(=O)N[C@H](Cc2c[nH]c3ccccc23)C(=O)N[C@@H](C(N)=O)C(C)C)[C@H](C)O)NC1=O [(67)] (H-[dR][dK][dC]I[dI][dC][dW][dT][dW][dV]-NH2; disulfide 3-6)	–
26	CC(C)[C@@H](NC(=O)[C@@H](Cc1c[nH]c2ccccc12)NC(=O)[C@H](NC(=O)[C@@H](Cc1c[nH]c2ccccc12)NC(=O)[C@H]1CSSC[C@@H](NC(=O)[C@H](N)CCCCN)C(=O)NCC(=O)NCC(=O)N1)[C@H](C)O)C(N)=O [(26)] (H-[dK][dC]GG[dC][dW][dT][dW][dV]-NH2; disulfide 2-5)	–
46.2	CC(C)[C@@H](NC(=O)[C@@H](Cc1c[nH]c2ccccc12)NC(=O)[C@H](NC(=O)[C@@H](Cc1ccc(O)cc1)NC(=O)[C@H]1CSSC[C@@H](NC(=O)[C@@H](CCCCN)NC(=O)[C@H](N)CCCNC(=N)N)C(=O)NCC(=O)N[C@@H](Cc2ccccc2)C(=O)N1)[C@H](C)O)C(N)=O [(64)] (H-[dR][dK][dC]GF[dC][dY][dT][dW][dV]-NH2; disulfide 3-6)	–
18.3	CC(C)[C@@H](NC(=O)[C@@H](Cc1c[nH]c2ccccc12)NC(=O)[C@H](NC(=O)[C@@H](Cc1c[nH]c2ccccc12)NC(=O)[C@H]1CSSC[C@@H](NC(=O)[C@@H](CCCCN)NC(=O)[C@H](N)CCCNC(=N)N)C(=O)NCC(=O)N2Cc3ccccc3C[C@@H]2C(=O)N1)[C@H](C)O)C(N)=O [(59)] (H-[dR][dK][dC]G[dTic][dC][dW][dT][dW][dV]-NH2; disulfide 3-6)	–
4.6	CC(C)[C@@H](NC(=O)[C@@H](Cc1c[nH]c2ccccc12)NC(=O)[C@H](NC(=O)[C@@H](Cc1c[nH]c2ccccc12)NC(=O)[C@H]1CSSC[C@@H](NC(=O)[C@@H](CCCCN)NC(=O)[C@H](N)CCCNC(=N)N)C(=O)NCC(=O)N[C@H](C(C)C)C(=O)N1)[C@H](C)O)C(N)=O [(116)] (H-[dR][dK][dC]G[dV][dC][dW][dT][dW][dV]-NH2; disulfide 3-6)	–
88.5	CC(C)[C@@H](NC(=O)[C@@H](Cc1c[nH]c2ccccc12)NC(=O)[C@H](NC(=O)[C@@H](Cc1c[nH]c2ccccc12)NC(=O)[C@H]1CSSC[C@@H](NC(=O)[C@H](CCCCN)NC(=O)[C@H](N)CCCNC(=N)N)C(=O)NCC(=O)N[C@@H](Cc2ccccc2)C(=O)N1)[C@H](C)O)C(N)=O [(34)] (H-[dR]K[dC]GF[dC][dW][dT][dW][dV]-NH2; disulfide 3-6)	–
8	CC[C@@H](C)[C@@H](NC(=O)[C@@H](CCCCN)NC(=O)[C@H](N)CCCNC(=N)N)C(=O)NCC(=O)N[C@@H]1CSSC[C@H](C(=O)N[C@H](Cc2c[nH]c3ccccc23)C(=O)N[C@@H](C(N)=O)C(C)C)NC(=O)[C@@H](Cc2c[nH]c3ccccc23)NC(=O)[C@@H]([C@H](C)CC)NC1=O [(107)] (H-[dR][dK][dI]G[dC][dI][dW][dC][dW][dV]-NH2; disulfide 5-8)	–
